In one assay the target is T1, GIP receptor (Homo sapiens, UniProt P48546).
T1 sequence (P48546 22-466): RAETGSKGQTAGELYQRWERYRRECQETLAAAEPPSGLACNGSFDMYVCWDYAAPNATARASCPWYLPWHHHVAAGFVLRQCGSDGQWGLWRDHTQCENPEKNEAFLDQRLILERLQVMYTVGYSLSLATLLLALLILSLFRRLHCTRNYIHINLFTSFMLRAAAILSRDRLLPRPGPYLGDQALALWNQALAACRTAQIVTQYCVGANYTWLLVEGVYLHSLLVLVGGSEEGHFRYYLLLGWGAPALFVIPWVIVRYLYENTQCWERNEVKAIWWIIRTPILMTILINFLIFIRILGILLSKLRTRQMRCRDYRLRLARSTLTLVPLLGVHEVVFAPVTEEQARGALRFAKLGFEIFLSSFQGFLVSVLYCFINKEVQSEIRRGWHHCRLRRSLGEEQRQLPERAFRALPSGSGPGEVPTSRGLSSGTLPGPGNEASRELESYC
The assay is described as follows: HitHunter cAMP assay, GIP receptor. Format: cell-based. To be noted: read-out: Emax GIP-1R. (In general: Changes in cAMP serve as a functional read-out for many G protein-coupled receptors.)

A further assay has as its target GLP-1 receptor (Homo sapiens, UniProt P43220). The assay is described as follows: HitHunter cAMP assay, GLP-1 receptor. The class given is cell-based. To be noted: read-out: Emax GLP-1R.
The mark [1] stands for this setting: CHO cells, cAMP, normalized to maximum signal from GIP (high) and DMSO (low).
[2] abbreviates: CHO cells, cAMP, normalized to maximum signal from GLP-1 (high) and DMSO (low).

For 5 compounds, Emax results are on record in patent US12281149B2, “Modulators of G-protein coupled receptors” (priority 2021, dated 2025).

Read-outs that look alike come from different tables or passages of the source. *1 amine or outer side, *2 acyl side, *3 side chain or, on linkers, in order; H or OH if unused. Where a SMILES comes first, the peptide text is derived from it. Side-chain parts run from the residue outwards. [ ]: non-standard residue; d: D form. The star is where a group is joined. Isobutyryl(2-(3-CN-5-F-Ph)) = CC(C)(C(=O)*)c1cc(F)cc(C#N)c1; C20 diacid = O=C(O)CCCCCCCCCCCCCCCCCCC(=O)*; αMePhe(2-F) = C[C@](N)(Cc1ccccc1F)C(=O)O; γGlu = O=C(O)[C@H](CCC(=O)[*:2])N[*:1]; X40 = CC(C)(C(=O)*)n1cc(Cl)cn1; X60 = O=C(C1(c2cccnc2)CCCC1)*; X83 = Cc1ccn(C(C)(C)C(=O)*)n1; X66 = NC(=O)C1(C(=O)*)CCC1; AEEA = NCCOCCOCC(=O)O; Aib = CC(C)(N)C(=O)O; βAla = NCCC(=O)O

GLP-1 receptor, sequence (P43220 24-463): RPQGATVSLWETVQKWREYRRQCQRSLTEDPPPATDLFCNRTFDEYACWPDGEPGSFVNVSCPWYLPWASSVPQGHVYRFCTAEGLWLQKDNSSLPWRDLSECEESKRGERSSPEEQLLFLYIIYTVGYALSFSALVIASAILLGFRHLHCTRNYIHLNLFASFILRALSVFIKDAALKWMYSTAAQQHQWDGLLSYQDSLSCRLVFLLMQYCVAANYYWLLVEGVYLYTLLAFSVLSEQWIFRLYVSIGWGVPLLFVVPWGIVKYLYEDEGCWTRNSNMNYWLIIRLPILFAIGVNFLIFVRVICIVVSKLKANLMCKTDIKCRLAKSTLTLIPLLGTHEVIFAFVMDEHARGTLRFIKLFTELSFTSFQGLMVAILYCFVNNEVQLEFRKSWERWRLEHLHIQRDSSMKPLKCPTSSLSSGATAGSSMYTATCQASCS

The term Emax denotes the maximal effect, on the per cent scale that the assay sets. `CC[C@H](C)[C@H](NC(=O)[C@H](CC(C)C)NC(=O)[C@H](Cc1c[nH]c2ccccc12)NC(=O)[C@H](CCC(N)=O)NC(=O)[C@@H](NC(=O)[C@H](Cc1ccccc1)NC(=O)[C@H](C)NC(=O)[C@H](CCCCNC(=O)COCCOCCNC(=O)COCCOCCNC(=O)CC[C@H](NC(=O)CCCCCCCCCCCCCCCCCCC(=O)O)C(=O)O)NC(=O)[C@H](CCC(N)=O)NC(=O)[C@H](C)NC(=O)[C@@H](NC(=O)[C@H](CCCCN)NC(=O)[C@H](CC(=O)O)NC(=O)[C@H](CC(C)C)NC(=O)C(C)(C)NC(=O)[C@@H](NC(=O)[C@H](CO)NC(=O)[C@H](Cc1ccc(O)cc1)NC(=O)[C@H](CC(=O)O)NC(=O)[C@H](CO)NC(=O)[C@@H](NC(=O)[C@H](Cc1ccccc1)NC(=O)[C@@H](NC(=O)CNC(=O)[C@H](CCC(=O)O)NC(=O)CCNC(=O)C(C)(C)n1cc(Cl)cn1)[C@@H](C)O)[C@@H](C)O)[C@@H](C)CC)[C@@H](C)CC)C(C)C)C(=O)N[C@@H](C)C(=O)NCC(=O)NCC(=O)N1CCC[C@H]1C(=O)N[C@@H](CO)C(=O)N[C@@H](CO)C(=O)NCC(=O)N[C@@H](C)C(=O)N1CCC[C@H]1C(=O)N1CCC[C@H]1C(=O)N1CCC[C@H]1C(=O)N[C@@H](CO)C(N)=O` [Compound 247] ({X40-βAla}-EGTFTSDYSI[Aib]LDKIAQK([AEEA-AEEA-γGlu-C20 diacid])AFVQWLIAGGPSSGAPPPS-NH2; C-terminus assumed): the Emax amounted to 105% on GIP receptor (setting [1]) and 101% at GLP-1 receptor (setting [2]).

In the case of `CC[C@H](C)[C@H](NC(=O)[C@H](CC(C)C)NC(=O)[C@H](Cc1c[nH]c2ccccc12)NC(=O)[C@H](CCC(N)=O)NC(=O)[C@@H](NC(=O)[C@H](Cc1ccccc1)NC(=O)[C@H](C)NC(=O)[C@H](CCCCNC(=O)COCCOCCNC(=O)COCCOCCNC(=O)CC[C@H](NC(=O)CCCCCCCCCCCCCCCCCCC(=O)O)C(=O)O)NC(=O)[C@H](CCC(N)=O)NC(=O)[C@H](C)NC(=O)[C@@H](NC(=O)[C@H](CCCCN)NC(=O)[C@H](CC(=O)O)NC(=O)[C@H](CC(C)C)NC(=O)C(C)(C)NC(=O)[C@@H](NC(=O)[C@H](CO)NC(=O)[C@H](Cc1ccc(O)cc1)NC(=O)[C@H](CC(=O)O)NC(=O)[C@H](CO)NC(=O)[C@@H](NC(=O)[C@H](Cc1ccccc1)NC(=O)[C@@H](NC(=O)CNC(=O)[C@H](CCC(=O)O)NC(=O)CCNC(=O)C(C)(C)c1cc(F)cc(C#N)c1)[C@@H](C)O)[C@@H](C)O)[C@@H](C)CC)[C@@H](C)CC)C(C)C)C(=O)N[C@@H](C)C(=O)NCC(=O)NCC(=O)N1CCC[C@H]1C(=O)N[C@@H](CO)C(=O)N[C@@H](CO)C(=O)NCC(=O)N[C@@H](C)C(=O)N1CCC[C@H]1C(=O)N1CCC[C@H]1C(=O)N1CCC[C@H]1C(=O)N[C@@H](CO)C(N)=O` [Compound 254] ({Isobutyryl(2-(3-CN-5-F-Ph))-βAla}-EGTFTSDYSI[Aib]LDKIAQK([AEEA-AEEA-γGlu-C20 diacid])AFVQWLIAGGPSSGAPPPS-NH2; C-terminus assumed), the Emax was 102% on GIP receptor (setting [1]) and 93% on GLP-1 receptor (setting [2]).

For the compound `CC[C@H](C)[C@H](NC(=O)[C@H](CC(C)C)NC(=O)[C@H](Cc1c[nH]c2ccccc12)NC(=O)[C@H](CCC(N)=O)NC(=O)[C@@H](NC(=O)[C@H](Cc1ccccc1)NC(=O)[C@H](C)NC(=O)[C@H](CCCCNC(=O)COCCOCCNC(=O)COCCOCCNC(=O)CC[C@H](NC(=O)CCCCCCCCCCCCCCCCCCC(=O)O)C(=O)O)NC(=O)[C@H](CCC(N)=O)NC(=O)[C@H](C)NC(=O)[C@@H](NC(=O)[C@H](CCCCN)NC(=O)[C@H](CC(=O)O)NC(=O)[C@H](CC(C)C)NC(=O)C(C)(C)NC(=O)[C@@H](NC(=O)[C@H](CO)NC(=O)[C@H](Cc1ccc(O)cc1)NC(=O)[C@H](CC(=O)O)NC(=O)[C@H](CO)NC(=O)[C@@H](NC(=O)[C@H](Cc1ccccc1)NC(=O)[C@@H](NC(=O)CNC(=O)[C@H](CCC(=O)O)NC(=O)CCNC(=O)C(C)(C)n1ccc(C)n1)[C@@H](C)O)[C@@H](C)O)[C@@H](C)CC)[C@@H](C)CC)C(C)C)C(=O)N[C@@H](C)C(=O)NCC(=O)NCC(=O)N1CCC[C@H]1C(=O)N[C@@H](CO)C(=O)N[C@@H](CO)C(=O)NCC(=O)N[C@@H](C)C(=O)N1CCC[C@H]1C(=O)N1CCC[C@H]1C(=O)N1CCC[C@H]1C(=O)N[C@@H](CO)C(N)=O` [Compound 253] ({X83-βAla}-EGTFTSDYSI[Aib]LDKIAQK([AEEA-AEEA-γGlu-C20 diacid])AFVQWLIAGGPSSGAPPPS-NH2; C-terminus assumed), the values for the maximal response (Emax) on GIP receptor (setting [1]) and at GLP-1 receptor (setting [2]) were 105% and 94%, respectively.

Turning to `CC[C@H](C)[C@H](NC(=O)[C@H](CC(C)C)NC(=O)[C@H](Cc1c[nH]c2ccccc12)NC(=O)[C@H](CCC(N)=O)NC(=O)[C@@H](NC(=O)[C@H](Cc1ccccc1)NC(=O)[C@H](C)NC(=O)[C@H](CCCCNC(=O)COCCOCCNC(=O)COCCOCCNC(=O)CC[C@H](NC(=O)CCCCCCCCCCCCCCCCCCC(=O)O)C(=O)O)NC(=O)[C@H](CCC(N)=O)NC(=O)[C@H](C)NC(=O)[C@@H](NC(=O)[C@H](CCCCN)NC(=O)[C@H](CC(=O)O)NC(=O)[C@H](CC(C)C)NC(=O)C(C)(C)NC(=O)[C@@H](NC(=O)[C@H](CO)NC(=O)[C@H](Cc1ccc(O)cc1)NC(=O)[C@H](CC(=O)O)NC(=O)[C@H](CO)NC(=O)[C@@H](NC(=O)[C@H](Cc1ccccc1)NC(=O)[C@@H](NC(=O)CNC(=O)[C@H](CCC(=O)O)NC(=O)CCNC(=O)C1(C(N)=O)CCC1)[C@@H](C)O)[C@@H](C)O)[C@@H](C)CC)[C@@H](C)CC)C(C)C)C(=O)N[C@@H](C)C(=O)NCC(=O)NCC(=O)N1CCC[C@H]1C(=O)N[C@@H](CO)C(=O)N[C@@H](CO)C(=O)NCC(=O)N[C@@H](C)C(=O)N1CCC[C@H]1C(=O)N1CCC[C@H]1C(=O)N1CCC[C@H]1C(=O)N[C@@H](CO)C(N)=O` [Compound 257] ({X66-βAla}-EGTFTSDYSI[Aib]LDKIAQK([AEEA-AEEA-γGlu-C20 diacid])AFVQWLIAGGPSSGAPPPS-NH2; C-terminus assumed), the values for the Emax at GIP receptor (CHO) and at GLP-1 receptor (CHO) were 92% and 89%, respectively.

Take `CC[C@H](C)[C@H](NC(=O)[C@H](CC(C)C)NC(=O)[C@H](Cc1c[nH]c2ccccc12)NC(=O)[C@H](CCC(N)=O)NC(=O)[C@@H](NC(=O)[C@H](Cc1ccccc1)NC(=O)[C@H](C)NC(=O)[C@H](CCCCNC(=O)COCCOCCNC(=O)COCCOCCNC(=O)CC[C@H](NC(=O)CCCCCCCCCCCCCCCCCCC(=O)O)C(=O)O)NC(=O)[C@H](CCC(N)=O)NC(=O)[C@H](C)NC(=O)[C@@H](NC(=O)[C@H](CCCCN)NC(=O)[C@H](CC(=O)O)NC(=O)[C@H](CC(C)C)NC(=O)C(C)(C)NC(=O)[C@@H](NC(=O)[C@H](CO)NC(=O)[C@H](Cc1ccc(O)cc1)NC(=O)[C@H](CC(=O)O)NC(=O)[C@H](CO)NC(=O)[C@@H](NC(=O)[C@](C)(Cc1ccccc1F)NC(=O)[C@@H](NC(=O)CNC(=O)[C@H](CCC(=O)O)NC(=O)CCNC(=O)C1(c2cccnc2)CCCC1)[C@@H](C)O)[C@@H](C)O)[C@@H](C)CC)[C@@H](C)CC)C(C)C)C(=O)N[C@@H](C)C(=O)NCC(N)=O` [Compound 226] ({X60-βAla}-EGT[αMePhe(2-F)]TSDYSI[Aib]LDKIAQK([AEEA-AEEA-γGlu-C20 diacid])AFVQWLIAG-NH2; N-terminus and C-terminus assumed): the Emax at GIP receptor (setting [1]) was 102%; on GLP-1 receptor (setting [2]) it was 104%.
